Paper PMC4343023, “Selectivity of odorant-binding proteins from the southern house mosquito tested against physiologically relevant ligands” (Frontiers in Physiology, 2015)
Like-named read-outs stand apart in the source and are kept apart here.

Tests used:
Assay in all cases: biochemical
Type in all cases: binding
Conditions in all cases: for Int (fluorescence emission): residual NPN fluorescence, normalized to 100 prior to ligand, screen at 2–20 μM ligand
CquiOBP2 = CquiOBP2 (Culex quinquefasciatus, UniProt C7BDZ6)
Experimental: (§1) Binding affinity (Ban et al., [2002]) was tested with a panel of 34 compounds, including attractants, a mosquito oviposition pheromone, repellents, terpenoids and other putative mosquito attractants or repellents. Unless otherwise specified, they were purchased from Sigma-Aldrich/Fluka/Acros (St. Louis, MO). Repellents: DEET (N,N-diethyl-3-methylbenzamide), PMD (p-mentan-3,8-diol) (Bedoukian Research, Inc.), picaridin (butan-2-yl 2-(2-hydroxyethyl)piperidine-1-carboxylate), IR3535 (ethyl 3-[acetyl(butyl)amino]propanoate) (gifts from Dr. Kamal Chauhan, USDA, ARS, Beltsville), (±)-citronellal, and ethyl 2-phenylacetate. Oviposition attractants: (5R,6S)-6-acetoxy-5-hexadecanolide, MOP (Bedoukian Research, Inc.), skatole, indole, 4-methylphenol, and 4-ethylphenol. Human derived compounds: nonanal, 6-methyl-5-hepten-2-one (sulcatone). Terpenoids and other putative attractants/repellents: linalool, linalool oxide, eucalyptol, camphor, fenchone, thujone, geranyl acetate, eugenol, (Z)-3-hexenyl acetate, 1-octen-3-ol, 1-octyn-3-ol, 3-octanol, 1-hexanol, methylcyclohexanol, methyl salicylate, cyclohexanone, acetophenone, benzaldehyde, 3,5-dimethoxybenzene, 1,2-dimethoxybenzene, and 2-phenylethanol.
(§2) Fluorescence spectra were recorded in a right angle configuration on a spectrofluorimeter (RF-5301, Shimadzu, Kyoto, Japan) at room temperature using a 1 cm light path fluorimeter quartz cuvette. Slit widths of 10 nm were selected for both excitation and emission. N-phenyl-1-naphthylamine (NPN, or 1-NPN) (Ban et al., [2002]) was dissolved in methanol to yield a 1 mM stock solution. The binding affinity for NPN was determined by adding aliquots of NPN into a 10 μg/ml (microgram) protein sample. NPN was excited at 337 nm and emission spectra were recorded at high speed scanning between 350 and 500 nm. All ligands used in competition experiments were dissolved in spectrophotometric grade methanol. Binding data were collected in three independent measurements. Bound ligand was evaluated from fluorescence intensity assuming that the protein was 100% active, with a stoichiometry of 1:1 (protein: ligand) at saturation. The KNPN values were estimated using Prism 5 (GraphPad Software, Inc., La Jolla, CA) by non-linear regression for a unique site of binding. The curves were linearized using Scatchard plots. Dissociation constants of the competitors were calculated according to Campanacci et al. ([2001]) from the corresponding IC50 values in the equation: Kdiss = [IC50]/1+[NPN]/KNPN, where [NPN] is the free concentration of NPN and KNPN is the dissociation constant of the complex protein/NPN.

CquiOBP5 = CquiOBP5 (Culex quinquefasciatus, UniProt C7BDZ9)
Experimental: as §1, §2

CquiOBP1 = CquiOBP1 (Culex quinquefasciatus, UniProt Q8T6I2)
Experimental: as §1, §2

[1] = CquiOBP2, NPN displacement titration, read-out: IC50
[2] = CquiOBP2, calculated from IC50 of NPN displacement, read-out: Kd
[3] = CquiOBP5, NPN displacement titration, read-out: IC50
[4] = CquiOBP5, calculated from IC50 of NPN displacement, read-out: Kd
[5] = CquiOBP1, NPN displacement titration, read-out: IC50
[6] = CquiOBP1, calculated from IC50 of NPN displacement, read-out: Kd

CquiOBP2, sequence (C7BDZ6 entry or part of it): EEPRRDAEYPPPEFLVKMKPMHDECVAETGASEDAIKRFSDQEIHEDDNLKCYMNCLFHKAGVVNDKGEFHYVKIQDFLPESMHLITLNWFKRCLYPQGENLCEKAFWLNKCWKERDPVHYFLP
CquiOBP5, sequence (C7BDZ9 entry or part of it): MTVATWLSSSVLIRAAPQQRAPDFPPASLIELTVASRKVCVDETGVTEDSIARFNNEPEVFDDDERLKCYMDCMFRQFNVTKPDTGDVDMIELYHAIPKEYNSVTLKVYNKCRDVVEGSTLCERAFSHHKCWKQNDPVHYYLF
CquiOBP1, sequence (Q8T6I2 entry or part of it): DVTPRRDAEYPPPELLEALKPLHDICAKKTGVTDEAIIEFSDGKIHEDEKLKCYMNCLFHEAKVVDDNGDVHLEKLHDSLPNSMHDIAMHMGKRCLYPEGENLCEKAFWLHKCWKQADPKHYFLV

| SMILES | IC50 (CquiOBP2; [1]) [µM] | Kd (CquiOBP2; [2]) [µM] | Int (fluorescence emission) (CquiOBP2; CquiOBP2) | IC50 (CquiOBP5; [3]) [µM] | Kd (CquiOBP5; [4]) [µM] | Int (fluorescence emission) (CquiOBP5; CquiOBP5) | IC50 (CquiOBP1; [5]) [µM] | Kd (CquiOBP1; [6]) [µM] | Int (fluorescence emission) (CquiOBP1; CquiOBP1) | also measured |
| --- | --- | --- | --- | --- | --- | --- | --- | --- | --- | --- |
| Cc1cc(C)cc(O)c1 [3,5-Dimethylphenol] | 7.4 | 1.9 | 40 | > 10 | > 7 | 93 | > 10 | > 6.3 | 84 | – |
| CC(=O)c1ccccc1 [Acetophenone, acetophenone] | > 10 | > 2.5 | 92 | > 10 | > 7 | 87 | > 10 | > 6.3 | 88 | – |
| O=Cc1ccccc1 [Benzaldehyde, benzaldehyde] | – | – | 91 | – | – | 93 | – | – | 83 | IC50 (CquiOBP2): > 10 µM; Kd (CquiOBP2): > 2.5 µM; IC50 (CquiOBP5): > 10 µM; Kd (CquiOBP5): > 7 µM; IC50 (CquiOBP1): > 10 µM; Kd (CquiOBP1): > 6.3 µM |
| CCCCCC(O)CC (stereo not drawn) [3-Octanol, 3-octanol] | > 10 | > 2.5 | 78 | > 10 | > 7 | 85 | > 10 | > 6.3 | 87 | – |
| COC(=O)c1ccccc1O [Methyl salicylate, methyl salicylate] | > 10 | > 2.5 | 72 | > 10 | > 7 | 89 | > 10 | > 6.3 | 87 | – |
| C=CCc1ccc(O)c(OC)c1 [Eugenol, eugenol] | > 10 | > 2.5 | 82 | 10.7 | 7.4 | 57.5 | > 10 | > 6.3 | 72 | – |
| COc1ccccc1OC [1,2-Dimethoxybenzene, 1,2-dimethoxybenzene] | > 10 | > 2.5 | 91 | > 10 | > 7 | 87 | > 10 | > 6.3 | 88 | – |
| C=CC1(C)CCC(C(C)(C)O)O1 (stereo not drawn) [Linalool oxide, linalool oxide] | > 10 | > 2.5 | 95 | > 10 | > 7 | 94 | > 10 | > 6.3 | 92 | – |
| Cc1c[nH]c2ccccc12 [Skatole, skatole] | 5.6 | 1.4 | 31 | 14.4 | 10.1 | 62 | > 10 | > 6.3 | 75 | binding to CquiOBP2 (in words) (CquiOBP2; in vitro, NPN displacement): bind; binding to CquiOBP5 (in words) (CquiOBP5; in vitro, NPN displacement): bind; binding to CquiOBP1 (in words) (CquiOBP1; in vitro, NPN displacement): does not bind |
| CC12CCC(C1)C(C)(C)C2=O (stereo not drawn) [Fenchone, fenchone] | > 10 | > 2.5 | 87 | > 10 | > 7 | 92 | > 10 | > 6.3 | 89 | – |
| c1ccc(Nc2cccc3ccccc23)cc1 [NPN, N-phenyl-1-naphthylamine] | – | – | – | – | – | – | – | – | – | Kd (CquiOBP2; direct titration of CquiOBP2 (10 μg/ml) with NPN, read-out: Kd for NPN): 0.5 ± 0.02 µM; Kd (CquiOBP5; direct titration of CquiOBP5 (10 μg/ml) with NPN, read-out: Kd for NPN): 2.3 ± 0.19 µM; Kd (CquiOBP1; direct titration of CquiOBP1 (10 μg/ml) with NPN, read-out: Kd for NPN): 1.71 ± 0.13 µM |
| C=CC(C)(O)CCC=C(C)C (stereo not drawn) [Linalool, linalool] | > 10 | > 2.5 | 97 | > 10 | > 7 | 86 | > 10 | > 6.3 | 91 | – |
| CC(C)[C@]12CC(=O)[C@H](C)[C@H]1C2 [Thujone, thujone] | – | – | 87 | – | – | 90 | – | – | 96 | IC50 (CquiOBP2): > 10 µM; Kd (CquiOBP2): > 2.5 µM; IC50 (CquiOBP5): > 10 µM; Kd (CquiOBP5): > 7 µM; IC50 (CquiOBP1): > 10 µM; Kd (CquiOBP1): > 6.3 µM |
| Cc1ccc(O)cc1 [4-Methylphenol, 4-methylphenol] | > 10 | > 2.5 | 85 | > 10 | > 7 | 90 | > 10 | > 6.3 | 73 | – |
| CC(=O)CCC=C(C)C [Sulcatone, 6-methyl-5-hepten-2-one] | – | – | 84 | – | – | 66 | – | – | 87 | IC50 (CquiOBP2): > 10 µM; Kd (CquiOBP2): > 2.5 µM; IC50 (CquiOBP5): > 10 µM; Kd (CquiOBP5): > 7 µM; IC50 (CquiOBP1): > 10 µM; Kd (CquiOBP1): > 6.3 µM |
| C#CC(O)CCCCC (stereo not drawn) [1-Octyn-3-ol, 1-octyn-3-ol] | > 10 | > 2.5 | 92 | 12.8 | 8.9 | 62.2 | > 10 | > 6.3 | 66 | – |
| CCCCN(CCC(=O)OCC)C(C)=O [IR3535, ethyl 3-[acetyl(butyl)amino]propanoate] | > 10 | > 2.5 | 90 | > 10 | > 7 | 67 | > 10 | > 6.3 | 71 | – |
